The NIST ThermoML archive (doi:10.1021/acs.jced.5b00112)
± gives the expanded uncertainty stated by the source.

Test: wn = mass fraction of the nth substance listed
Conditions: 348 K, 101 kPa, Liquid, Pycnometric method

Row | mass density (w1 = 0.5348) [kg/m3] | mass density (w1 = 0.7426) [kg/m3] | Compound
1 | 1674.1 ± 1.8 | – | [Br-].[Br-].[Mg+2] [magnesium bromide (MgBr2)] + O
2 | – | 2062.6 ± 3.5 | [Br-].[Br-].[Ca+2] [calcium bromide] + O
